Results on 43 compounds are retold here after the supplement of paper PMC5412046.

Structures can show the parent of a compound that is named as a salt.

In one test the test system is SB.mhdgc-1. The test is described as follows: AC50 for growth inhibition (viability) (log10 M); higher = less potent. The following applies: SB.mhdgc-1 (hereditary c.1380delA CDH1 gastric cancer). In outline:
(§1)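 Hereditary or sporadic patient-derived gastric cancer cells (500 cells in 5 μL medium per 1536 well) received 23 nL compound in DMSO by pintool. Dosing was 11 threefold dilutions starting at a final 46 μM. After 48 h, CellTiter-Glo was added for 30 min at room temperature and luminescence read on a ViewLux. Log half-maximal activity concentration came from a four-parameter fit of DMSO-normalised viability, keeping only high-quality curve classes.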

The subject of the next test is SB.msgc-1. The description is as above. As to conditions: SB.msgc-1 (sporadic gastric cancer). In short, it runs like this: as §1

With `CC[C@@H]1/C=C(\C)C[C@H](C)C[C@H](OC)[C@H]2O[C@@](O)(C(=O)C(=O)N3CCCC[C@H]3C(=O)O[C@H](/C(C)=C/[C@@H]3CC[C@H](Cl)[C@H](OC)C3)[C@H](C)[C@@H](O)CC1=O)[C@H](C)C[C@@H]2OC` [Pimecrolimus], the “AC50 for growth inhibition (log10 M)” value with SB.mhdgc-1 was -4.98; in the test on SB.msgc-1, -4.93.

For the compound `COc1cccc2c1C(=O)c1c(O)c3c(c(O)c1C2=O)C[C@@](O)(C(=O)CO)C[C@@H]3O[C@H]1C[C@H](N)[C@H](O[C@H]2CCCCO2)[C@H](C)O1` [Pirarubicin], the entries for the “AC50 for growth inhibition (log10 M)” value with SB.mhdgc-1 and in the test on SB.msgc-1 were -6.08 and -5.68, respectively.

For `CC(C)(C)c1[nH]cnc1/C=c1\[nH]c(=O)/c(=C/c2ccccc2)[nH]c1=O` [Plinabulin], the “AC50 for growth inhibition (log10 M)” value was -7.62 in the test with SB.mhdgc-1 and -6.07 with SB.msgc-1.

Take `Cc1cc(Nc2ncc3c(n2)N(C)C(=O)N(c2cc(NC(=O)c4cccc(C(F)(F)F)c4)ccc2C)C3)n(C)n1` [Pluripotin]: the “AC50 for growth inhibition (log10 M)” value with SB.mhdgc-1 is -5.23; in the test on SB.msgc-1 it was -6.08.

As for `Cc1ccc(C(=O)Nc2ccc(CN3CCN(C)CC3)c(C(F)(F)F)c2)cc1C#Cc1cnc2cccnn12` [Ponatinib], the figures for the “AC50 for growth inhibition (log10 M)” value in the test on SB.mhdgc-1 and in the test with SB.msgc-1 were -5.78 and -4.88, respectively.

For the compound `CCCCc1nc2cc(/C=C/C(=O)NO)ccc2n1CCN(CC)CC` [Pracinostat], the “AC50 for growth inhibition (log10 M)” value in the test on SB.mhdgc-1 was -5.33; in the test on SB.msgc-1 it was -6.88.

Turning to `C#CCC(Cc1cnc2nc(N)nc(N)c2n1)c1ccc(C(=O)N[C@@H](CCC(=O)O)C(=O)O)cc1` (stereo partly specified) [Pralatrexate], the “AC50 for growth inhibition (log10 M)” value in the test with SB.mhdgc-1 is -6.58; with SB.msgc-1, -7.28.

With `CCc1nc(N)nc(N)c1-c1ccc(Cl)cc1` [Pyrimethamine], the “AC50 for growth inhibition (log10 M)” value in the test on SB.mhdgc-1 was -5.38; in the test on SB.msgc-1 it was -5.48.

In the case of `O=C(CCCCCCC(=O)Nc1cccnc1)NO` [Pyroxamide], the results for the “AC50 for growth inhibition (log10 M)” value in the test with SB.mhdgc-1 and in the test with SB.msgc-1 were -5.53 and -5.33, respectively.

In the case of `OC1=CC2=C(C(=C1)O)C(=O)\C(=C(/O2)C3=CC(=C(O)C=C3)O)O` [Quercetine], the entries for the “AC50 for growth inhibition (log10 M)” value in the test on SB.mhdgc-1 and in the test with SB.msgc-1 were -5.13 and -4.68, respectively.

As for `Cn1cc(CNCC2CCN(c3ncc(C(=O)NO)cn3)CC2)c2ccccc21` [Quisinostat hydrochloride], the “AC50 for growth inhibition (log10 M)” value was -6.73 in the test on SB.mhdgc-1 and -7.23 with SB.msgc-1.

With `COc1ccc(F)c(F)c1C(=O)c1cnc(NC2CCN([S+](C)(=O)[O-])CC2)nc1N` [R-547], the figures for the “AC50 for growth inhibition (log10 M)” value in the test with SB.mhdgc-1 and in the test with SB.msgc-1 were -5.73 and -6.03, respectively.

For `CNC(=O)c1ccc(N2C(=S)N(c3ccc(C#N)c(C(F)(F)F)c3)C(=O)C23CCC3)cc1F` [RD-162], the “AC50 for growth inhibition (log10 M)” value was -5.08 with SB.mhdgc-1 and -5.13 with SB.msgc-1.

As for `Cc1cc(Nc2cc(NC(=O)c3c(Cl)cccc3Cl)ccn2)nc(N)n1` [RO495], the figures for the “AC50 for growth inhibition (log10 M)” value with SB.mhdgc-1 and in the test with SB.msgc-1 were -5.58 and -6.38, respectively.

`Cc1cnc(NC(=O)Nc2cc(Br)c(C)cc2OC[C@@H]2CNCCO2)cn1` [Rabusertib]: the “AC50 for growth inhibition (log10 M)” value in the test on SB.mhdgc-1 was -4.88; with SB.msgc-1 it was -5.88.

As for `CC(=O)SCC(Cc1ccccc1)C(=O)NCC(=O)OCc1ccccc1` (stereo unspecified) [Racecadotril], the “AC50 for growth inhibition (log10 M)” value in the test with SB.mhdgc-1 was -6.68; in the test with SB.msgc-1, -6.23.

As to `O=C(c1ccc(OCCN2CCCCC2)cc1)c1c(-c2ccc(O)cc2)sc2cc(O)ccc12` [Raloxifene hydrochloride], the figures for the “AC50 for growth inhibition (log10 M)” value with SB.mhdgc-1 and in the test with SB.msgc-1 were -6.88 and -5.18, respectively.

In the case of `Cc1nc2ccc(CN(C)c3ccc(C(=O)N[C@@H](CCC(=O)O)C(=O)O)s3)cc2c(=O)[nH]1` [Raltitrexed], the “AC50 for growth inhibition (log10 M)” value is -7.48 in the test on SB.mhdgc-1 and -7.28 in the test with SB.msgc-1.

In the case of `CCOC(=O)[C@H](CCc1ccccc1)N[C@@H](C)C(=O)N1[C@H](C(=O)O)C[C@@H]2CCC[C@@H]21` [Ramipril], the “AC50 for growth inhibition (log10 M)” value in the test on SB.mhdgc-1 was -5.18; in the test with SB.msgc-1, -4.73.

Turning to `CO[C@@H]1[C@@H](O)[C@H](O)[C@@H](n2c3c(Cl)cccc3c3c4c(c5c6cccc(Cl)c6[nH]c5c32)C(=O)NC4=O)O[C@H]1CO` [Rebeccamycin], the “AC50 for growth inhibition (log10 M)” value in the test with SB.mhdgc-1 was -6.83; in the test with SB.msgc-1, -6.43.

`CNC(=O)c1cc(Oc2ccc(NC(=O)Nc3ccc(Cl)c(C(F)(F)F)c3)c(F)c2)ccn1` [Regorafenib]: the “AC50 for growth inhibition (log10 M)” value in the test on SB.mhdgc-1 is -4.78; in the test with SB.msgc-1, -4.83.

For the compound `COC(=O)C1C2CC3c4[nH]c5cc(OC)ccc5c4CCN3CC2CC(OC(=O)c2cc(OC)c(OC)c(OC)c2)C1OC` (stereo unspecified) [Reserpine], the “AC50 for growth inhibition (log10 M)” value in the test with SB.mhdgc-1 and in the test with SB.msgc-1 was -5.43 in each case.

On to `C=CCNc1c(O)cc2c(O)c1C[C@@H](C)C[C@H](OC)[C@H](O)[C@@H](C)/C=C(/C)[C@H](OC(N)=O)[C@@H](OC)/C=C\C=C(\C)C(=O)N2` [Retaspimycin], for which the entries for the “AC50 for growth inhibition (log10 M)” value with SB.mhdgc-1 and with SB.msgc-1 were -6.88 and -7.48, respectively.

In the case of `c1nc2c(NC3CCCCC3)nc(Nc3ccc(N4CCOCC4)cc3)nc2[nH]1` [Reversine], the figures for the “AC50 for growth inhibition (log10 M)” value in the test on SB.mhdgc-1 and in the test with SB.msgc-1 were -4.63 and -4.73, respectively.

Take `CO[C@H]1/C=C/O[C@@]2(C)Oc3c(C)c(O)c4c(O)c(c(/C=N\N5CCN(C6CCCC6)CC5)c(O)c4c3C2=O)NC(=O)/C(C)=C\C=C\[C@H](C)[C@H](O)[C@@H](C)[C@@H](O)[C@@H](C)[C@H](OC(C)=O)[C@@H]1C` [Rifapentine]: the “AC50 for growth inhibition (log10 M)” value in the test with SB.mhdgc-1 is -7.38; with SB.msgc-1, -6.33.

With `Cc1c(C(=O)NN2CCCCC2)nn(-c2ccc(Cl)cc2Cl)c1-c1ccc(Cl)cc1` [Rimonabant], the “AC50 for growth inhibition (log10 M)” value in the test on SB.mhdgc-1 is -4.78; in the test on SB.msgc-1 it was -4.63.

`COc1cc(C(C)C)c(Oc2cnc(NC(CO)CO)nc2N)cc1I` [Ro 51]: the “AC50 for growth inhibition (log10 M)” value in the test on SB.mhdgc-1 is -6.63; in the test on SB.msgc-1 it was -6.18.

With `C[N]1C=C(C2=C1C=CC=C2)\C3=C(\C(=O)NC3=O)C4=C5CC(CN)CC[N]5C6=C4C=CC=C6` (stereo unspecified) [Ro-31-8425], the figures for the “AC50 for growth inhibition (log10 M)” value with SB.mhdgc-1 and in the test with SB.msgc-1 were -4.88 and -4.78, respectively.

In the case of `CCCn1c(=O)c2[nH]c(C34CC5CC3C[C@@H](C5)C4)nc2n(CCC)c1=O` [Rolofylline], the “AC50 for growth inhibition (log10 M)” value was -4.68 with SB.mhdgc-1 and -4.83 in the test with SB.msgc-1.

Consider `C/C=C1\NC(=O)[C@H]2CSSCC/C=C\[C@H](CC(=O)N[C@H](C(C)C)C(=O)N2)OC(=O)[C@H](C(C)C)NC1=O` [Romidepsin], for which the entries for the “AC50 for growth inhibition (log10 M)” value with SB.mhdgc-1 and in the test with SB.msgc-1 were -7.63 and -7.83, respectively.

As for `C=C(C)[C@H]1Cc2c(ccc3c2O[C@@H]2COc4cc(OC)c(OC)cc4[C@@H]2C3=O)O1` [Rotenone], the “AC50 for growth inhibition (log10 M)” value in the test with SB.mhdgc-1 is -5.38; in the test on SB.msgc-1, -6.33.

Turning to `COc1cc2c(cc1OC)[C@@H]1Cc3ccc(OC)c(OC)c3CN1CC2` [Rotundine], the “AC50 for growth inhibition (log10 M)” value in the test on SB.mhdgc-1 was -5.28; in the test on SB.msgc-1, -4.73.

In the case of `CC(C)Nc1cc(C(F)(F)F)cc2nc(NC(=O)c3cccnc3)nn12` [S-99], the “AC50 for growth inhibition (log10 M)” value with SB.mhdgc-1 was -5.28; with SB.msgc-1, -5.08.

As for `COc1ccc([C@@H]2CNC(=O)C2)cc1OC1CCCC1` [S-(+)-Rolipram], the “AC50 for growth inhibition (log10 M)” value in the test with SB.mhdgc-1 and with SB.msgc-1 was -5.58 each time.

Regarding `CNC1CCC(N(Cc2cccc(-c3ccncc3)c2)C(=O)c2sc3ccccc3c2Cl)CC1` (stereo unspecified) [SAG], the results for the “AC50 for growth inhibition (log10 M)” value in the test on SB.mhdgc-1 and with SB.msgc-1 were -4.93 and -4.88, respectively.

Turning to `CCOc1cc(C(=O)Nc2ccc(Cl)c(-c3nc4ccccc4[nH]3)c2)cc(OCC)c1OCC` [SANT-2], the “AC50 for growth inhibition (log10 M)” value in the test with SB.mhdgc-1 is -5.93; with SB.msgc-1 it was -5.18.

For the compound `CC(C)N(CCCNC(=O)Nc1ccc(C(C)(C)C)cc1)C[C@H]1O[C@@H](n2cc(Br)c3c(N)ncnc32)[C@H](O)[C@@H]1O` [SGC0946], the “AC50 for growth inhibition (log10 M)” value was -4.68 in the test with SB.mhdgc-1 and -4.53 in the test on SB.msgc-1.

For `CN1CCC(CNc2ccc3ncc(-c4cccc(OC(F)(F)F)c4)n3n2)CC1` [SGI-1776], the “AC50 for growth inhibition (log10 M)” value in the test with SB.mhdgc-1 was -5.03; in the test on SB.msgc-1, -4.83.

For `Cn1cc(-c2ccc3nnc(Sc4ccc5ncccc5c4)n3n2)cn1` [SGX-523], the “AC50 for growth inhibition (log10 M)” value with SB.mhdgc-1 was -5.13; in the test with SB.msgc-1, -4.78.

Regarding `N#C/C(=C(/N)Sc1ccc(N)cc1)c1ccccc1C(F)(F)F` [SL-327], the “AC50 for growth inhibition (log10 M)” value in the test with SB.mhdgc-1 is -5.28; with SB.msgc-1, -5.13.

In the case of `CN[C@@H](C)C(=O)N[C@H]1CCCC[C@H]2CC[C@@H](C(=O)N[C@@H](c3ccccc3)c3cn(CCCCc4ccc(CCCCn5cc([C@@H](NC(=O)[C@@H]6CC[C@@H]7CCCC[C@H](NC(=O)[C@H](C)NC)C(=O)N76)c6ccccc6)nn5)cc4)nn3)N2C1=O` [SM-164], the results for the “AC50 for growth inhibition (log10 M)” value with SB.mhdgc-1 and in the test with SB.msgc-1 were -5.88 and -4.68, respectively.

Regarding `CCC1=C2CN3C(=O)\C4=C(/C=C3/C2=NC5=CC=C(O)C=C15)[C@@](O)(CC)C(=O)OC4` [SN-38], the entries for the “AC50 for growth inhibition (log10 M)” value with SB.mhdgc-1 and in the test with SB.msgc-1 were -8.48 and -8.08, respectively.

For `CC1(C)CC(=O)c2c(C(F)(F)F)nn(-c3ccc(C(N)=O)c(NC4CCC(O)CC4)c3)c2C1` (stereo unspecified) [SNX-2112], the entries for the “AC50 for growth inhibition (log10 M)” value with SB.mhdgc-1 and in the test on SB.msgc-1 were -6.48 and -7.43, respectively.
